The subject of the assay is Jurkat NF-kB reporter, TCR-induced, luciferase luminescence. The assay can be described thus: T-cell NF-kB luciferase reporter inhibition – Jurkat cells, luminescence, dose response (AID 489035). Background: A reporter such as luciferase makes a cellular process visible.

For 87 compounds, IC50 results are on record in PubChem BioAssay AID489035 (Sanford-Burnham Center for Chemical Genomics, 2010).

The source made the active and inactive calls. No rule for the calls is given here. Where only a bound is given, the exact number is not on record here.

For orientation: IC50 means the concentration needed to halve the response being measured. `COc1ccc(NS(=O)(=O)c2ccc(-c3cnc(C4CC4)o3)cc2)cc1OC`: the IC50 is > 80 µM (inactive).

On to `CCO[C@H]1OC(C(=O)NCc2nc3ccccc3[nH]2)=C[C@@H](C2CC2)[C@@H]1CCCO`, for which the IC50 is > 80 µM (inactive).

Turning to `O=c1cc(-c2ccccc2)[nH]c2ccccc12`, the IC50 is > 80 µM (inactive).

Take `Cn1ncc2c(N3CCN(c4ccc(Cl)c(Cl)c4)CC3)ncnc21`: the concentration for half-maximal inhibition (IC50) was 7.55 µM.

`COC(=O)c1[nH]c2ccc(F)cc2c1NS(=O)(=O)c1ccc(OC)cc1`: the IC50 was > 80 µM (inactive).

For the compound `C=C(C=O)C[C@@H]1C[C@H](O)C2OC3C[C@]4(C)OC5/C=C\CC6OC7C(CC=CCC6OC5CCCC4OC3CC2O1)OC1CC2OC3CC(=O)OC3C[C@@H](C)C[C@@]2(C)OC1C[C@@H]7C` (some centres not stated), the IC50 was 1.39 µM.

Consider `C=CCNC(=S)N/N=C(\C)c1ccccn1`, for which the IC50 was 1.09 µM.

With `CC(C)c1ccc(/C=N/Nc2ccc(C(=O)O)cc2)cc1`, the IC50 was 4.63 µM.

For `CC(Oc1ccc(Cl)cc1Cl)c1nc(-c2ccc(NC(=O)c3ccncc3)cc2)no1` (configuration not stated), the IC50 is > 80 µM (inactive).

Regarding `Cc1ccc(C(=O)c2cc([N+](=O)[O-])ccc2N2CCOCC2)c(C)c1`, the IC50 was 54.5 µM (inactive).

Regarding `CCc1ccc(S(=O)(=O)/N=C2\C=C(Nc3ccc(O)cc3)C(=O)c3ccccc32)cc1`, the IC50 is 2.58 µM.

Regarding `CN1/C(=C\C(=O)C[n+]2ccc3ccccc3c2)C(C)(C)c2ccccc21`, the IC50 was 38 µM (inactive).

Take `CC(C)(C)c1ccc(C(=O)O/N=C(\N)c2ccccc2)cc1`: the IC50 was 2.31 µM.

For `Cc1ccc(S(=O)(=O)/N=C2\C=C(Nc3ccc(O)cc3)C(=O)c3ccccc32)cc1`, the IC50 is 0.62 µM.

In the case of `COC(=O)c1ccc(C)c(NS(=O)(=O)c2ccc3c(c2)OCCO3)c1`, the IC50 was > 80 µM (inactive).

In the case of `Cc1nc2ccccc2c2c1CC(C(C)(Cl)Br)O2` (configuration not stated), the IC50 is > 80 µM (inactive).

On to `CCOC(=O)C(C)Oc1cccc2c(=O)n(CC(=O)NCc3ccc4c(c3)OCO4)ccc12` (configuration not stated), for which the IC50 is 9.88 µM.

With `Brc1ccc2c(c1)C(C1=NCCN1)c1ccccc1CS2` (configuration not stated), the IC50 is > 80 µM (inactive).

As to `CCCCCc1ccc(OCCCC[n+]2ccc(C)cc2)c(CCCCC)c1`, the IC50 was 8.23 µM.

As to `C=CCn1c(C)cc(C2=NNC(=NCC)SC2)c1C`, the IC50 is below 0.16 µM.

Regarding `CCc1cc2c(=O)nc3n(c2s1)Cc1ccccc1/C3=C(/O)c1cccc([N+](=O)[O-])c1`, the IC50 is > 80 µM (inactive).

Take `COc1cc(C(=O)N2CCN(c3cccc(C)c3C)CC2)cc(OC)c1OC`: the IC50 was > 80 µM (inactive).

On to `COc1cc(/C=C/[N+](=O)[O-])ccc1OCc1cccc(C(=O)O)c1`, for which the half-maximal inhibitory concentration (IC50) is 0.55 µM.

Turning to `COc1ccc(CNC(=O)c2c(C)oc3c2C(=O)c2ccccc2C3=O)cc1`, the IC50 is 8.08 µM.

For the compound `CN=c1scc(-c2cccs2)n1/N=C/c1ccccc1O`, the IC50 is 2.09 µM.

For `Cc1nc2c(=O)n(C)c(=O)nc-2n(C)n1`, the IC50 was 0.47 µM.

With `CCOCCCNC(=O)c1cc2c(=O)n3cccc(C)c3nc2n1C`, the IC50 is > 80 µM (inactive).

For the compound `N=c1ccn(CC(=O)c2ccc(-c3ccccc3)cc2)cc1`, the IC50 was 54.5 µM (inactive).

As to `CCN1/C(=C/c2ccc3ccccc3[n+]2CC)C=Cc2ccccc21`, the IC50 is 11.2 µM.

Turning to `COc1ccc(CCNc2cc(N3CCN(C(=O)c4ccccc4F)CC3)ccc2[N+](=O)[O-])cc1OC`, the IC50 is > 80 µM (inactive).

For `COc1cc(OC)c(/C=C2\C(=O)Nc3ccccc32)c(OC)c1`, the IC50 was 18.4 µM.

For the compound `O=C(COc1ccc2c(-c3ccccc3)cc(=O)oc2c1)Nc1cccnc1`, the IC50 was > 80 µM (inactive).

In the case of `CCCCOc1ccc(Br)cc1/C(C)=N/NC1=NCCN1`, the IC50 was 5.51 µM.

With `Cc1ccc(C(=O)c2cc([N+](=O)[O-])ccc2N2CCCCC2)cc1C`, the IC50 was 37 µM (inactive).

Regarding `O=C(Nc1ccc(Cl)c(S(=O)(=O)N2CCOCC2)c1)c1ccc(OCC2CCCO2)cc1` (configuration not stated), the IC50 is 18.3 µM.

Consider `CCOC(=O)C1CCN(S(=O)(=O)c2c(Cl)ccc3nonc23)CC1`, for which the IC50 was 1.88 µM.

Consider `O=C(N/N=C/c1c(O)ccc2ccccc12)c1cccc(C(F)(F)F)c1`, for which the IC50 was 10.4 µM.

For `COc1cc(-c2noc(C)c2/C=C/c2cccc([N+](=O)[O-])c2)cc(OC)c1OC`, the IC50 was > 80 µM (inactive).

Regarding `CC1=NNC(=O)/C1=C\c1cn(-c2ccccc2)nc1-c1ccc(Cl)cc1`, the concentration for half-maximal inhibition (IC50) is 1.13 µM.

Take `C#Cc1ccc([C@@H]2C=C(C(=O)N3CCN(Cc4ccccc4)CC3)O[C@H](OCCCCO)C2)cc1`: the IC50 is > 80 µM (inactive).

On to `O=C(c1ccc(Cl)cc1)c1cc([N+](=O)[O-])ccc1N1CCOCC1`, for which the IC50 is > 80 µM (inactive).

As for `COc1cccc(/C=N/NC(=O)c2[nH]nc3c2CCc2ccccc2-3)c1O`, the IC50 was 59.5 µM (inactive).

Regarding `Cc1c(C(=O)N/N=C/c2c(O)ccc3ccccc23)nnn1-c1nonc1N`, the IC50 was > 80 µM (inactive).

In the case of `c1ccc2c(c1)CCN(c1ncnc3c1[nH]c1ccccc13)C2`, the IC50 was 24.2 µM (inactive).

In the case of `COc1ccccc1NC(=O)c1cnc(Nc2ccccc2OC)c2ccccc12`, the IC50 is > 80 µM (inactive).

Regarding `CCOC(=O)COc1cccc2c(=O)n(CC(=O)NCc3ccc(F)cc3)ccc12`, the IC50 is > 80 µM (inactive).

With `CCCCC(=O)NC(c1ccc(N(C)C)cc1)c1ccc2cccnc2c1O` (configuration not stated), the IC50 is > 80 µM (inactive).

Turning to `COc1cccc(/C=N/Nc2ncnc3c2ncn3Cc2ccccc2)c1O`, the IC50 is > 80 µM (inactive).

Turning to `COC(=O)C[C@]1(C(=O)OC)CN(C#N)N(c2ccc(Cl)cc2)C12c1ccccc1-c1ccccc12`, the IC50 is 0.73 µM.

On to `Cc1ccc(C(=O)c2cc([N+](=O)[O-])ccc2N2CCCCC2)c(C)c1`, for which the IC50 is > 80 µM (inactive).

On to `COc1ccc(OC)c2c1C(=O)C(Cl)=C(Cl)C2=O`, for which the 50% inhibitory concentration (IC50) is 1.65 µM.

Consider `O=C1C=C(c2ccc3ncccc3c2)C[C@@H](c2ccc3c(c2)OCO3)C1`, for which the IC50 was > 80 µM (inactive).

For the compound `O=C(c1ccc(Br)cc1)c1cc([N+](=O)[O-])ccc1N1CCOCC1`, the IC50 was 64.3 µM (inactive).

With `O=Cc1cc2ccccc2nc1SCc1ccc(Cl)c(Cl)c1`, the IC50 was > 80 µM (inactive).

In the case of `CCCC(=O)NC(c1ccc(N(C)C)cc1)c1ccc2cccnc2c1O` (configuration not stated), the IC50 is 6.58 µM.

Take `O=C(Nc1ccn(Cc2ccccc2F)n1)c1ccc(COc2ccc(Br)cc2)cc1`: the IC50 is > 80 µM (inactive).

As to `COc1ccc(OC)c(NS(=O)(=O)c2ccc(N3CCCC3=O)cc2)c1`, the IC50 was > 80 µM (inactive).

`COc1cc(/C=C2/SC(=Nc3ccc(O)cc3)NC2=O)ccc1O`: the IC50 was 10.6 µM.

For the compound `COc1ccc(NC(=O)C(=O)NCC2CCCN2S(=O)(=O)c2cccs2)cc1` (configuration not stated), the IC50 was 7.15 µM.

On to `CCOc1ccc(NC(=O)c2cc3c(C)nc4ccccc4c3o2)cc1`, for which the IC50 was > 80 µM (inactive).

Turning to `COc1ccc(C(=O)N2CCN(c3ccc([N+](=O)[O-])c(NCCc4ccc(OC)c(OC)c4)c3)CC2)cc1`, the IC50 is > 80 µM (inactive).

Turning to `CCc1cc(C(=O)NC2CCCc3c2cnn3-c2cccc(C)c2C)n(C)n1` (configuration not stated), the IC50 is > 80 µM (inactive).

Turning to `COc1cc(-c2noc(C)c2C#Cc2ccsc2)cc(OC)c1OC`, the IC50 was > 80 µM (inactive).

As to `O=C(Nc1ccc([N+](=O)[O-])cc1)Nc1ccon1`, the IC50 is > 80 µM (inactive).

As to `CCOc1ccc(Nc2cc(C)nc(-n3nc(C)cc3C)n2)cc1`, the IC50 was > 80 µM (inactive).

`CC(=O)O[C@@]12CO[C@@H]1C[C@@H](O)[C@@]1(C)C(=O)[C@H](O)C3=C(C)[C@@H](OC(=O)[C@H](O)[C@@H](NC(=O)c4ccccc4)c4ccccc4)C[C@@](O)([C@@H](OC(=O)c4ccccc4)C12)C3(C)C` (some centres not stated): the half-maximal inhibitory concentration (IC50) is below 0.16 µM.

In the case of `Cc1cccc(N(C)S(=O)(=O)c2ccc(-c3cnc(C4CC4)o3)cc2)c1`, the IC50 is 23.8 µM (inactive).

As to `COc1ccc(C2=Nn3c(nnc3-c3ccccc3OC)SC2)cc1OC1CCCC1`, the IC50 is 15.3 µM.

`O=c1cc(-c2ccccc2)[nH]c2cc(Cl)ccc12`: the IC50 is 18.8 µM.

Consider `COc1ccc(C(NC(=O)C(C)C)c2ccc3cccnc3c2O)cc1` (configuration not stated), for which the IC50 was 5.96 µM.

Consider `COc1ccc(-c2csc(NC(=O)C3CCN(c4ncnc5sc(C)c(C)c45)CC3)n2)cc1OC`, for which the IC50 is > 80 µM (inactive).

Take `CCn1c2ccccc2c2cc(NC(=O)c3cc(OC)cc(OC)c3)ccc21`: the IC50 is > 80 µM (inactive).

For the compound `Cc1nc(NCc2ccco2)c2c(C)c(C)sc2n1`, the IC50 is 3.1 µM.

Consider `Cc1ccc(C(=O)O/N=C(\N)c2ccccn2)c(Cl)c1`, for which the IC50 is 1.11 µM.

Turning to `O=C(NC(Nc1nc2ccc([N+](=O)[O-])cc2s1)(C(F)(F)F)C(F)(F)F)c1ccccc1`, the IC50 is > 80 µM (inactive).

For `CC(Nc1ncnc2ccccc12)c1ccccc1` (configuration not stated), the IC50 was > 80 µM (inactive).

In the case of `CCn1c2ccccc2c2cc(Nc3cc(C)nc4ncnn34)ccc21`, the IC50 is > 80 µM (inactive).

As to `CC(C)Oc1ccccc1C1CC(=O)Nc2cc3c(cc21)OCO3` (configuration not stated), the IC50 is > 80 µM (inactive).

`CC1C/C(=C/c2ccncc2)C(=O)/C(=C/c2ccncc2)C1` (configuration not stated): the IC50 is 1.39 µM.

Turning to `O=C(NN=Cc1c(O)ccc2ccccc12)c1ccc2c(c1)OCO2`, the IC50 is 26.6 µM (inactive).

Regarding `COc1ccc(CS(=O)(=O)/C(Cl)=C(/Cl)C(=O)Nc2ccc(OC)nc2)cc1`, the IC50 is 0.45 µM.

Turning to `COc1ccc(-c2ccc3oc(-c4ccc(OC)cc4)c(C#CCO)c3c2)cc1`, the IC50 is > 80 µM (inactive).

Regarding `COc1cccc(-c2cc(=O)c3cc(NC(=O)c4ccccc4)ccc3[nH]2)c1`, the IC50 is > 80 µM (inactive).

As for `CCCCCCCCn1c2c(c(=N)c3c1CCC3)CCCC2`, the 50% inhibitory concentration (IC50) is 4.63 µM.

Regarding `CCCCOc1ccccc1C1CC(=O)NC2=C1C(=O)CCC2` (configuration not stated), the IC50 was > 80 µM (inactive).

For `COc1ccc(NC(=O)C(=O)NCC2CCCN2S(=O)(=O)c2ccc(C)cc2)cc1` (configuration not stated), the IC50 is > 80 µM (inactive).

On to `COc1cccc(OC)c1C1=NCC(=O)Nc2c1oc1ccc(Br)cc21`, for which the IC50 was > 80 µM (inactive).
